{"source": "paper PMC9063988", "about": "(JACS Au, 2022)", "origin": "cited, not measured here", "test_system": "SARS-CoV-2 spike pseudo-lentiviral vector into A549 cells overexpressing ACE2 and TMPRSS2", "data": [{"molecule": "O=c1c2ccccc2[se]n1-c1ccccc1", "note": "[ebselen]", "values": [{"measurement": "inhibition of entry of SARS-CoV-2 lentivectors", "value": "only at high IC50 with high toxicity"}]}]}
